# Structures can show the parent of a compound that is named as a salt.
# Tested on: not listed separately
# Assay: Determination of the microsomal half-life / microsomal clearance, human liver microsomes
# Type: in vitro ADME
# Conditions: 0.5 μM test substance, 0.25 mg of microsomal protein/mL, NADPH, 37° C.
# Description: (§1) b) Determination of the Microsomal Half-Life:
# (§2) The metabolic stability of the compounds of the invention was determined in the following assay.
# (§3) The test substances were incubated in a concentration of 0.5 μM as follows:
# (§4) 0.5 μM test substance are preincubated together with liver microsomes from different species (from rat, human or other species) (0.25 mg of microsomal protein/mL) in 0.05 M potassium phosphate buffer of pH 7.4 in microtiter plates at 37° C. for 5 min. The reaction is started by adding NADPH (1 mg/mL). After 0, 5, 10, 15, 20 and 30 min, 50 μl aliquots are removed, and the reaction is immediately stopped and cooled with the same volume of acetonitrile. The samples are frozen until analyzed. The remaining concentration of undegraded test substance is determined by MSMS. The half-life (T½) is determined from the gradient of the signal of test substance/unit time plot, it being possible to calculate the half-life of the test substance, assuming first order kinetics, from the decrease in the concentration of the compound with time. The microsomal clearance (mCl) is calculated from mCl=ln 2/T½/(content of microsomal protein in mg/mL)×1000 [mL/min/mg] (modified from references: Di, The Society for Biomoleculur Screening, 2003, 453-462; Obach, DMD, 1999 vol 27. N 11, 1350-1359).
row,Molecule,Human mCl
1,"Cn1nc(-c2ccncc2)c2scc(-c3cccc(-n4cccn4)c3)c2c1=O.O=C(O)C(F)(F)F.O=C(O)C(F)(F)F [Example 24, 5-methyl-3-[3-(1H-pyrazol-1-yl)phenyl]-7-(pyridin-4-yl)thieno[2,3-d]pyridazin-4(5H)-one bis(trifluoroacetate)]",∘ (∘ not avialable or >220 μl min^−1 mg^−1)
2,"O=c1c2c(-c3ccncc3)csc2c(-c2ccncc2)nn1C1CCCC1 [Example 134, 5-cyclopentyl-3,7-di(pyridin-4-yl)thieno[2,3-d]pyridazin-4(5H)-one]",∘ (∘ not avialable or >220 μl min^−1 mg^−1)

# The next lines start with the values.
row,Human mCl,Molecule
1,++ (++: <100 μl min^−1 mg^−1),"Cn1nc(-c2ccncc2)c2scc(-c3ccc(C(=O)NC4CC4)cc3)c2c1=O.O=C(O)C(F)(F)F [Example 40, N-cyclopropyl-4-[5-methyl-4-oxo-7-(pyridin-4-yl)-4,5-dihydrothieno[2,3-d]pyridazin-3-yl]benzamide trifluoroacetate]"
2,++ (++: <100 μl min^−1 mg^−1),"Cn1nc(-c2ccncc2)c2scc(-c3ccnnc3)c2c1=O [Example 7, 5-methyl-3-(pyridazin-4-yl)-7-(pyridin-4-yl)thieno[2,3-d]pyridazin-4(5H)-one]"
3,+ (+: 100-220 μl min^−1 mg^−1),"Cn1nc(-c2ccncc2)c2scc(-c3csc4ccccc34)c2c1=O.O=C(O)C(F)(F)F [Example 26, 3-(1-benzothiophen-3-yl)-5-methyl-7-(pyridin-4-yl)thieno[2,3-d]pyridazin-4(5H)-one trifluoroacetate]"

# Tested on: not listed separately
# Assay: Determination of the microsomal half-life / microsomal clearance, rat liver microsomes
# Type: in vitro ADME
# Conditions: 0.5 μM test substance, 0.25 mg of microsomal protein/mL, NADPH, 37° C.
# Description: as §1, §2, §3, §4
row,Molecule,Rat mCl
1,"O=c1c2c(-c3ccncc3)csc2c(-c2ccncc2)nn1C1CCCC1 [Example 134, 5-cyclopentyl-3,7-di(pyridin-4-yl)thieno[2,3-d]pyridazin-4(5H)-one]",+ (+: 100-220 μl min^−1 mg^−1)
2,"Cn1nc(-c2ccncc2)c2scc(-c3csc4ccccc34)c2c1=O.O=C(O)C(F)(F)F [Example 26, 3-(1-benzothiophen-3-yl)-5-methyl-7-(pyridin-4-yl)thieno[2,3-d]pyridazin-4(5H)-one trifluoroacetate]",∘ (∘ not avialable or >220 μl min^−1 mg^−1)

# More lines, now with the values ahead:
row,Rat mCl,Molecule
1,++ (++: <100 μl min^−1 mg^−1),"Cn1nc(-c2ccncc2)c2scc(-c3ccc(C(=O)NC4CC4)cc3)c2c1=O.O=C(O)C(F)(F)F [Example 40, N-cyclopropyl-4-[5-methyl-4-oxo-7-(pyridin-4-yl)-4,5-dihydrothieno[2,3-d]pyridazin-3-yl]benzamide trifluoroacetate]"
2,+ (+: 100-220 μl min^−1 mg^−1),"Cn1nc(-c2ccncc2)c2scc(-c3cccc(-n4cccn4)c3)c2c1=O.O=C(O)C(F)(F)F.O=C(O)C(F)(F)F [Example 24, 5-methyl-3-[3-(1H-pyrazol-1-yl)phenyl]-7-(pyridin-4-yl)thieno[2,3-d]pyridazin-4(5H)-one bis(trifluoroacetate)]"
3,+ (+: 100-220 μl min^−1 mg^−1),"Cn1nc(-c2ccncc2)c2scc(-c3ccnnc3)c2c1=O [Example 7, 5-methyl-3-(pyridazin-4-yl)-7-(pyridin-4-yl)thieno[2,3-d]pyridazin-4(5H)-one]"

# Target: PDE10A (UniProt Q9Y233)
# Assay: Measurement of PDE activity (HTRF cAMP kit, recombinant PDE10A)
# Type: biochemical, human, rat and mouse
# Conditions: substrate 20 nM, 60 minutes at 29° C.
# Description: a) Measurement of PDE Activity
# The recombinant PDE proteins are used in in vitro enzymatic reaction for measurement of PDE activity. These recombinant proteins, including PDE10A (human, rat and mouse PDE10) and isoforms of PDEs 1, 3, 4, and 5, were purchased from commercial vendor BPS Bioscience. The enzymatic activity of PDEs was determined by cAMP measurement kit from CisBio (IBA) using HTRF technology.
# The PDE enzymatic reaction was carried out in assay buffer (20 mM Tris-HCl pH 7.5, 10 mM MgCl2, 0.1% bovine serum albumin) containing enzyme and substrate. […] The substrate cyclic nucleotide (cAMP or cGMP) concentration used in the assay was 20 nM for PDE10, and 100 nM for other PDEs. The inhibitory effect of compound was determined by incubating various concentration of inhibitor in the enzymatic assay. […] Next, the compound at varying concentration was mixed with PDE enzyme. The reaction was initiated by addition of cyclic nucleotide substrate, and incubated for 60 minutes at 29° C. The reaction was stopped by addition of lysis buffer from the assay kit. The cAMP-d2 and anti-cAMP cryptate in the lysis buffer detected the level of cAMP left from the PDE hydrolysis reaction. […] Thus, IC50 value of inhibitor can be obtained by plotting inhibitor concentration against PDE activity at that concentration.
row,Molecule,IC50 [nM]
1,"Cn1nc(-c2ccc(Cl)cc2)c2scc(-c3ccncc3)c2c1=O [Example 110, 7-(4-chlorophenyl)-5-methyl-3-(pyridin-4-yl)thieno[2,3-d]pyridazin-4(5H)-one trifluoroacetate]",200 to 500
2,"COc1ccccc1-c1nn(C)c(=O)c2c(-c3ccncc3)csc12 [Example 113, 7-(2-methoxyphenyl)-5-methyl-3-(pyridin-4-yl)thieno[2,3-d]pyridazin-4(5H)-one trifluoroacetate]",200 to 500
3,"Cc1cnc(Cl)c(Oc2nn(C)c(=O)c3c(-c4ccncc4)csc23)c1 [Example 90, 7-[(2-chloro-5-methylpyridin-3-yl)oxy]-5-methyl-3-(pyridin-4-yl)thieno[2,3-d]pyridazin-4(5H)-one trifluoroacetate]",< 100
4,"N#CCCn1nc(-c2ccncc2)c2scc(-c3ccncc3)c2c1=O [Example 140, 3-[4-oxo-3,7-di(pyridin-4-yl)thieno[2,3-d]pyridazin-5(4H)-yl]propanenitrile]",100 to 200
5,"Cn1nc(OCc2ccc3c(c2)CNC3)c2scc(-c3ccncc3)c2c1=O [Example 126, 7-(2,3-dihydro-1H-isoindol-5-ylmethoxy)-5-methyl-3-(pyridin-4-yl)thieno[2,3-d]pyridazin-4(5H)-one bis(trifluoroacetate)]",200 to 500
6,"Cn1ccnc1COc1nn(C)c(=O)c2c(-c3ccncc3)csc12 [Example 56, 5-methyl-7-[(1-methyl-1H-imidazol-2-yl)methoxy]-3-(pyridin-4-yl)thieno[2,3-d]pyridazin-4(5H)-one]",200 to 500
7,"methyl 3-({[5-methyl-4-oxo-3-(pyridin-4-yl)-4,5-dihydrothieno[2,3-d]pyridazin-7-yl]oxy}methyl)benzoate trifluoroacetate [Example 72]",< 100
8,"COc1cc(OC)cc(-c2nn(C)c(=O)c3c(-c4ccncc4)csc23)c1 [Example 111, 7-(3,5-dimethoxyphenyl)-5-methyl-3-(pyridin-4-yl)thieno[2,3-d]pyridazin-4(5H)-one trifluoroacetate]",100 to 200
9,"Cn1nc(OC2Cc3ccccc3C2)c2scc(-c3ccncc3)c2c1=O [Example 60, 7-(2,3-dihydro-1H-inden-2-yloxy)-5-methyl-3-(pyridin-4-yl)thieno[2,3-d]pyridazin-4(5H)-one trifluoroacetate]",200 to 500
10,"Cn1nc(-c2ccncc2)c2scc(-c3cncnc3)c2c1=O [Example 6, 5-methyl-7-(pyridin-4-yl)-3-(pyrimidin-5-yl)thieno[2,3-d]pyridazin-4(5H)-one]",< 100
11,"Cn1nc(OCc2nc3ccccc3s2)c2scc(-c3ccncc3)c2c1=O [Example 71, 7-(1,3-benzothiazol-2-ylmethoxy)-5-methyl-3-(pyridin-4-yl)thieno[2,3-d]pyridazin-4(5H)-one trifluoroacetate]",< 100
12,"Cn1nc(-c2cccc(O)c2)c2scc(-c3ccncc3)c2c1=O [Example 107, 7-(3-hydroxyphenyl)-5-methyl-3-(pyridin-4-yl)thieno[2,3-d]pyridazin-4(5H)-one trifluoroacetate (salt)]",< 100
13,"COc1ccc(-c2nn(C)c(=O)c3c(-c4ccncc4)csc23)cc1OC [Example 102, 7-(3,4-dimethoxyphenyl)-5-methyl-3-(pyridin-4-yl)thieno[2,3-d]pyridazin-4(5H)-one trifluoroacetate]",< 100

# Now from value to molecule:
row,IC50 [nM],Molecule
1,< 100,"CN(C)c1cccc(-c2nn(C)c(=O)c3c(-c4ccncc4)csc23)c1 [Example 119, 7-[3-(dimethylamino)phenyl]-5-methyl-3-(pyridin-4-yl)thieno[2,3-d]pyridazin-4(5H)-one bis(trifluoroacetate)]"
2,100 to 200,"Cn1nc(-c2ccnc(F)c2)c2scc(-c3ccncc3)c2c1=O [Example 104, 7-(2-fluoropyridin-4-yl)-5-methyl-3-(pyridin-4-yl)thieno[2,3-d]pyridazin-4(5H)-one bis(trifluoroacetate)]"
3,< 100,"Cn1nc(-c2cnn(CC(F)(F)F)c2)c2scc(-c3ccncc3)c2c1=O [Example 100, 5-methyl-3-(pyridin-4-yl)-7-[1-(2,2,2-trifruoroethyl)-1H-pyrazol-4-yl]thieno[2,3-d]pyridazin-4(5H)-one bis(trifluoroacetate)]"
4,200 to 500,"Cn1nc(-c2ccccc2F)c2scc(-c3ccncc3)c2c1=O [Example 115, 7-(2-fluorophenyl)-5-methyl-3-(pyridin-4-yl)thieno[2,3-d]pyridazin-4(5H)-one trifluoroacetate]"
5,100 to 200,"Cn1nc(-c2cccc(C(F)(F)F)c2)c2scc(-c3ccncc3)c2c1=O [Example 114, 5-methyl-3-(pyridin-4-yl)-7-[3-(trifluoromethyl)phenyl]thieno[2,3-d]pyridazin-4(5H)-one trifluoroacetate]"
6,100 to 200,"Cn1nc(-c2ccc(C(F)(F)F)cc2)c2scc(-c3ccncc3)c2c1=O [Example 117, 5-methyl-3-(pyridin-4-yl)-7-[4-(trifluoromethyl)phenyl]thieno[2,3-d]pyridazin-4(5H)-one trifluoroacetate]"
7,100 to 200,"Cc1ccc(-c2nn(C)c(=O)c3c(-c4ccncc4)csc23)cc1 [Example 121, 5-methyl-7-(4-methylphenyl)-3-(pyridin-4-yl)thieno[2,3-d]pyridazin-4(5H)-one trifluoroacetate]"
8,200 to 500,"Cn1nc(-c2cccc(F)c2)c2scc(-c3ccncc3)c2c1=O [Example 116, 7-(3-fluorophenyl)-5-methyl-3-(pyridin-4-yl)thieno[2,3-d]pyridazin-4(5H)-one trifluoroacetate]"
9,< 100,"Cc1cc(-c2nn(C)c(=O)c3c(-c4ccncc4)csc23)ccn1 [Example 120, 5-methyl-7-(2-methylpyridin-4-yl)-3-(pyridin-4-yl)thieno[2,3-d]pyridazin-4(5H)-one bis(trifluoroacetate)]"
10,200 to 500,"Cn1nc(-c2cccc(OC(F)(F)F)c2)c2scc(-c3ccncc3)c2c1=O [Example 112, 5-methyl-3-(pyridin-4-yl)-7-[3-(trifluoromethoxy)phenyl]thieno[2,3-d]pyridazin-4(5H)-one trifluoroacetate]"
11,200 to 500,"Cn1nc(-c2cccc(Cl)c2)c2scc(-c3ccncc3)c2c1=O [Example 105, 7-(3-chlorophenyl)-5-methyl-3-(pyridin-4-yl)thieno[2,3-d]pyridazin-4(5H)-one trifluoroacetate]"
